Test results reported in US9265738B2, “Small molecule CMKLR1 antagonists in demyelinating disease” (The Board of Trustees of the Leland Stanford Junior …, priority 2012, dated 2016).

Tests used:
FPR = target: T1, FPR (Mus musculus, UniProt P33766); assay: FPR-dependent mouse BM neutrophil chemotaxis to fMLP; format: cell-based; details: 100 nM fMLP
T1 construct: endogenous in cells; host or cells: mouse bone-marrow neutrophils
T1 sequence (P33766 1-364): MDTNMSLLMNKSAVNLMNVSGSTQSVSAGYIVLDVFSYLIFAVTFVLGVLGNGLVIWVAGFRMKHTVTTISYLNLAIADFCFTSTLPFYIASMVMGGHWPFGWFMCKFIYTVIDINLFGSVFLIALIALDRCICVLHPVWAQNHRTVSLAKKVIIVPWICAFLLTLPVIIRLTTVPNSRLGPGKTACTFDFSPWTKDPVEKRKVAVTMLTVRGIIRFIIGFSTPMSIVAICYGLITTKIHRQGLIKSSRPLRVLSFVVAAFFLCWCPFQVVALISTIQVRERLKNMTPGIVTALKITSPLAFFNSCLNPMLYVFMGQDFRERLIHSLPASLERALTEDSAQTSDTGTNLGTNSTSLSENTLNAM
Description: Neutrophil ctx and 100 nM fMLP were used.

[1] = test system: huCMKLR1/βARR CHO, huCMKLR1/L1.2 cell lines and splenocytes; assay: In vitro cytotoxicity, annexin V FITC / propidium iodide assay; format: cell-based; details: 90 minute incubation at 37° C., huCMKLR1/L1.2, splenocytes
Description: The in vitro cytotoxicity of aNETA can be determined with an annexin V FITC assay kit. […] The analysis can be performed with a FITC-conjugated annexin-V, which has a strong affinity for extracellular phosphatidylserines, and the fluorescent intercalating agent propidium iodide (PI).
With reference to FIG. 11, cell lines (huCMKLR1/βARR CHO and huCMKLR1/L1.2) and splenocytes were used. aNETA was tested with 90 minute incubation at 37° C.

CCR7 = target: T2, CCR7 (Mus musculus, UniProt P47774); assay: CCR7-dependent mouse splenocyte migration to CCL19; format: cell-based; details: 100 nM CCL19
T2 construct: endogenous in cells; host or cells: mouse splenocytes
T2 sequence (P47774 25-378): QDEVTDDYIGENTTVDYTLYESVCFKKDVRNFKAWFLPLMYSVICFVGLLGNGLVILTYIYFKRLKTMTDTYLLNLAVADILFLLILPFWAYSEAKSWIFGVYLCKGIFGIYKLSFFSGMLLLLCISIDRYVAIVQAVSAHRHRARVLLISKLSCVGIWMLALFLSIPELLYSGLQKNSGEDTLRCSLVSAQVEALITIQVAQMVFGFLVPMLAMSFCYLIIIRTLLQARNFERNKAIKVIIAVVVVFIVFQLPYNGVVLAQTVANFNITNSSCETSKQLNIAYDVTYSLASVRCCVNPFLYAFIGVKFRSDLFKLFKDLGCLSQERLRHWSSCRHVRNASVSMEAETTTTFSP
Description: Splenocyte ctx and 100 nM CCL19 were used.

mouse CMKLR1 = target: T3, mouse CMKLR1 (Mus musculus, UniProt P97468); assay: Inhibition of chemerin-triggered mouse CMKLR1/L1.2 cell migration; format: cell-based; details: 1 nM chemerin
T3 construct: expressed in transfected cells; host or cells: L1.2 cells
T3 sequence (P97468 1-371): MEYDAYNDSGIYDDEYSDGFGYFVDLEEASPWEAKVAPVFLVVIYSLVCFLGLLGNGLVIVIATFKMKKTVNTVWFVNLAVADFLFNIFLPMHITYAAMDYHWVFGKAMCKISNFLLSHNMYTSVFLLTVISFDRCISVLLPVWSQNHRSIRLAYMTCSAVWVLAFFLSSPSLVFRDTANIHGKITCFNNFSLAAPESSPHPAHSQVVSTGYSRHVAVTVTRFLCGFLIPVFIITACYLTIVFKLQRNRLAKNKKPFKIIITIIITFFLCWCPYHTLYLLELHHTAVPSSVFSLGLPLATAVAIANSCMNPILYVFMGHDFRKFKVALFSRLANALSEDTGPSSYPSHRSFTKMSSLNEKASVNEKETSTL
Description: 2-(alpha-Naphthoyl)ethyltrimethyl ammonium iodide (aNETA) was tested for inhibition of chemerin-triggered mouse CMKLR1/L1.2 cell migration. mCMKLR1/L1.2 ctx and 1 nM chemerin were used. The assay was performed in 0.5% BSA, buffer (10% FBS), or 100% human serum.

huCMKLR1 [2] = target: T4, huCMKLR1 (Homo sapiens, UniProt Q99788); assay: Inhibition of chemerin-triggered huCMKLR1 association with beta-arrestin2 (PathHunter CHO-K1 enzyme fragment complementation); format: cell-based; design: host or cells: CHO-K1
T4 sequence (Q99788 1-373): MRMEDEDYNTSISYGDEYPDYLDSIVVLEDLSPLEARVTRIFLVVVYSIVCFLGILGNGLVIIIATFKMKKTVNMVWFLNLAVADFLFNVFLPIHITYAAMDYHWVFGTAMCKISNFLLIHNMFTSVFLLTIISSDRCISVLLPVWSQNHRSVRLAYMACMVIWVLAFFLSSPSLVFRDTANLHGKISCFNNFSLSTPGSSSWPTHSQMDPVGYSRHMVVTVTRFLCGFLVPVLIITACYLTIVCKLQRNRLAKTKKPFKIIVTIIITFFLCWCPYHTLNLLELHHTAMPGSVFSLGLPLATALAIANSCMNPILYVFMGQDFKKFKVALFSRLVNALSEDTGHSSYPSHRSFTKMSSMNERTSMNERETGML
Text: With reference to FIG. 1, early event in receptor internalization is ligand-triggered association with beta-arrestin2. This process turns off receptor signaling. Enzyme complementation can be used to measure CMKLR1 association with beta-arrestin2. In this assay β-Galactosidase is split into two complementary enzyme fragments, one is attached to CMKLR1, the other to beta-arrestin2. If ligand interaction with CMKLR1 promotes its association with β-arrestin2, the enzyme fragments join and become active. An assay, such as PathHunter® CHO-K1 CMKLR1 β-Arrestin GPCR Assays (DiscoverX, Inc., Fremont, Calif.) can provide a method for monitoring activation of the CMKLR1 GPCR receptor through arrestin recruitment in live cells. CMKLR1 cells are engineered to co-express a ProLink (PK)-tagged GPCR and the Enzyme Acceptor (EA)-tagged β-Arrestin fusion proteins. Upon GPCR activation, the two enzyme fragments are brought together, forming an active β-Gal enzyme through Enzyme Fragment Complementation (EFC). A LOPAC (Library of Pharmacologically Active Compounds) library (Sigma-Aldrich, St. Louis, Mo.) was screened for inhibition of chemerin-triggered […]1 association with βARR. Three hits were obtained from a primary screen of LOPAC library. […] The assay was performed in both buffer (10% FBS) or 100% human serum.

[3] = test system: experimental autoimmune encephalomyelitis (EAE); assay: Clinical EAE in vivo (MOG 35-55 induced); details: mouse; for Onset of EAE / Animals that developed EAE (disease incidence): subcutaneous; for Onset of EAE: 10% captisol
[4] = test system: leukocyte infiltration of CNS in EAE; assay: Leukocyte infiltration of CNS in EAE; format: in vivo, mouse; details: EAE mice
CXCR4 [5] = target: T5, CXCR4 (Homo sapiens, UniProt P61073); assay: CXCR4-dependent MOLT-4 migration to CXCL12; format: cell-based; details: MOLT4 human T-cell line; 1 nM CXCL12
T5 construct: endogenous in cells; host or cells: MOLT-4 (human T-cell line)
Description: MOLT4 cell ctx (human T-cell line) and 1 nM CXCL12 were used.

CCR9 = target: T6, CCR9 (Homo sapiens, UniProt P51686); assay: CCR9-dependent MOLT-4 migration to CCL25; format: cell-based; details: MOLT4 human T-cell line; 250 nM TECK
T6 construct: endogenous in cells; host or cells: MOLT-4 (human T-cell line)
T6 sequence (P51686 1-369): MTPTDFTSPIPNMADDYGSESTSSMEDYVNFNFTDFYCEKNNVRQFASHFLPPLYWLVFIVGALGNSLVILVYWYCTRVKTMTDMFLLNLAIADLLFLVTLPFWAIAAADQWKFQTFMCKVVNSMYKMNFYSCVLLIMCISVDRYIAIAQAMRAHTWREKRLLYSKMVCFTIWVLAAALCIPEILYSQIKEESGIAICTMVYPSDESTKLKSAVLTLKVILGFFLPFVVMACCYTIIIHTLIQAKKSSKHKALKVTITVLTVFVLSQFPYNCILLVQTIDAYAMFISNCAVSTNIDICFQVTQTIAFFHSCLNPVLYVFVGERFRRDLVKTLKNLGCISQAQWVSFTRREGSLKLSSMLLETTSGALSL
Description: MOLT4 cell ctx (human T-cell line) and 250 nM TECK were used.

CXCR4 [6] = target: T7, CXCR4 (Mus musculus, UniProt P70658); assay: CXCR4-dependent mouse splenocyte migration to CXCL12; format: cell-based; details: 100 nM CXCL12
T7 construct: endogenous in cells; host or cells: mouse splenocytes
Description: Splenocyte ctx and 100 nM CXCL12 were used.

huCMKLR1 [7] = target: T4, huCMKLR1; assay: Inhibition of chemerin-triggered human CMKLR1/L1.2 cell migration; format: cell-based; design: expressed in transfected cells; host or cells: L1.2 cells; details: 1 nM chemerin
Description: 2-(alpha-Naphthoyl)ethyltrimethyl ammonium iodide (aNETA) was tested for inhibition of chemerin-triggered human CMKLR1/L1.2 cell migration. huCMKLR1/L1.2 ctx and 1 nM chemerin were used. The assay was performed in 0.5% BSA, buffer (10% FBS), or 100% human serum.

C5aR = target: T8, C5aR (Mus musculus, UniProt P30993); assay: C5aR-dependent mouse BM neutrophil chemotaxis to C5a; format: cell-based; details: 100 nM C5a
T8 construct: endogenous in cells; host or cells: mouse bone-marrow neutrophils
T8 sequence (P30993 1-351): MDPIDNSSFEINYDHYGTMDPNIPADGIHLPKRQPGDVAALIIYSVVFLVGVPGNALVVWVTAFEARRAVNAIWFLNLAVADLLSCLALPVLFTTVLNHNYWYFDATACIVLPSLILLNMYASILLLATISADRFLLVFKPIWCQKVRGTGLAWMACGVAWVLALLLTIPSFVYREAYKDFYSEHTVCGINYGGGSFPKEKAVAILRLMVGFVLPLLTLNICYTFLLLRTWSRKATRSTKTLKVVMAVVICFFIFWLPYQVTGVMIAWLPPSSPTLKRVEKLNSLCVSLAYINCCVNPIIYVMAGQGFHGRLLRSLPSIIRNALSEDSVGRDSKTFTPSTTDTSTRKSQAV
Description: Neutrophil ctx and 100 nM C5a were used.

T7 sequence (P70658 whole entry): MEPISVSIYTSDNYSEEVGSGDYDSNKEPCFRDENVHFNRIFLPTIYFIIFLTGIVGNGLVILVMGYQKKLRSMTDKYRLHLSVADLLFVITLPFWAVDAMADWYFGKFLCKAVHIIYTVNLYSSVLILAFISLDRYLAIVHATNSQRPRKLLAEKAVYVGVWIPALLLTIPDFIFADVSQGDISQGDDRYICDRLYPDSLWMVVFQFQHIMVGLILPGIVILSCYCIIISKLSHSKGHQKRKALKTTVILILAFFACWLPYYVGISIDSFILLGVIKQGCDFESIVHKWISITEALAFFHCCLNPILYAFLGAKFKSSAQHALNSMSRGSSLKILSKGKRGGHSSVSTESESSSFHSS
T5 sequence (P61073 whole entry): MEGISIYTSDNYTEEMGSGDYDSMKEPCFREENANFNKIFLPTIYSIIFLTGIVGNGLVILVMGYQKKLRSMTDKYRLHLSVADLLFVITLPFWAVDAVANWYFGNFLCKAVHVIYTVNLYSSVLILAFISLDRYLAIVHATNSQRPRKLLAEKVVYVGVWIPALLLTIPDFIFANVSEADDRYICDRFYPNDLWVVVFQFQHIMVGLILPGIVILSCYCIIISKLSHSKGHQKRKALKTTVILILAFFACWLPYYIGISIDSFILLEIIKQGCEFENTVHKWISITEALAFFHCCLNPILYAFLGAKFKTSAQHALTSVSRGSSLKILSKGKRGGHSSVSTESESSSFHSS

C[N+](C)(C)CCC(=O)c1cccc2ccccc12.[I-] [aNETA, 2-(alpha-naphthoyl)ethyltrimethyl ammonium iodide]
Inhibition of FPR-dependent mouse BM neutrophil chemotaxis to fMLP (FPR): does not inhibit | In vitro cytotoxicity (annexin V / PI) [1]: does not appear to be acutely toxic | Inhibition of CCR7-dependent mouse splenocyte migration to CCL19 (CCR7): does not inhibit | IC50 (mouse CMKLR1; 0.5% BSA): 9600 nM | IC50 (mouse CMKLR1; 100% human serum): 1200 nM | IC50 (mouse CMKLR1; buffer (10% FBS)): 1100 nM | IC50 (huCMKLR1 [2]; 100% human serum, huCMKLR1/βARR CHO cells, 7 nM chemerin, read-out: IC50, inhibition of chemerin-triggered huCMKLR1 association with βARR): 620 nM | IC50 (huCMKLR1 [2]; buffer (10% FBS), huCMKLR1/βARR CHO cells, 7 nM chemerin, read-out: IC50, inhibition of chemerin-triggered huCMKLR1 association with βARR): 350 nM | IC50 (huCMKLR1 [2]; in vitro cell-based bioassay, read-out: IC50, inhibition of chemerin mediated beta-arrestin2 association with CMKLR1): ~350 nM | Onset of EAE ([3]; 1 mg/kg daily): 17.8 days post-immunization | Animals that developed EAE (disease incidence) ([3]; 3 mg/kg daily, 3/16): 19% | Onset of EAE ([3]; 10 mg/kg daily): 26 days post-immunization | Animals that developed EAE (disease incidence) ([3]; 10 mg/kg daily, 1/16): 7% | Effect on onset of EAE ([3]; 10 mg/kg s.c. daily for 8 days, then every other day): significantly delayed | Leukocyte infiltration of the CNS compared to vehicle ([4]; daily 10 mg/kg): fewer leukocytes present | Leukocytes in the spleen compared to vehicle ([4]; daily 10 mg/kg and 3 mg/mg): more leukocytes present | Inhibition of CXCR4-dependent MOLT-4 migration to CXCL12 (CXCR4 [5]): does not inhibit | Inhibition of CCR9-dependent MOLT-4 migration to CCL25 (CCR9): does not inhibit | Inhibition of CXCR4-dependent mouse splenocyte migration to CXCL12 (CXCR4 [6]): does not inhibit | IC50 (huCMKLR1 [7]; 0.5% BSA): 1200 nM | IC50 (huCMKLR1 [7]; 100% human serum): 1300 nM | IC50 (huCMKLR1 [7]; buffer (10% FBS)): 1200 nM | Inhibition of C5aR-dependent mouse BM neutrophil chemotaxis to C5a (C5aR): does not inhibit
